What was measured:
[1] = target: Protein kinase C alpha type (Homo sapiens, UniProt P17252); assay type: cell-based; conditions: sf9;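 note: inhibition of PKCalpha kinase activity measured in an enzyme assay with histone as the phosphorylation substrate; in other assays of this panel Not Active means under 50% inhibition at 10 µM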
Caspase-1 = target: T1, Caspase-1 (Homo sapiens, UniProt P29466); set-up: species or system Escherichia coli;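 note: Caspase-1 enzyme inhibition assay with a peptide substrate; in other assays of this panel Not Active means under 50% inhibition at 10 µM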
T1 sequence (P29466 whole entry): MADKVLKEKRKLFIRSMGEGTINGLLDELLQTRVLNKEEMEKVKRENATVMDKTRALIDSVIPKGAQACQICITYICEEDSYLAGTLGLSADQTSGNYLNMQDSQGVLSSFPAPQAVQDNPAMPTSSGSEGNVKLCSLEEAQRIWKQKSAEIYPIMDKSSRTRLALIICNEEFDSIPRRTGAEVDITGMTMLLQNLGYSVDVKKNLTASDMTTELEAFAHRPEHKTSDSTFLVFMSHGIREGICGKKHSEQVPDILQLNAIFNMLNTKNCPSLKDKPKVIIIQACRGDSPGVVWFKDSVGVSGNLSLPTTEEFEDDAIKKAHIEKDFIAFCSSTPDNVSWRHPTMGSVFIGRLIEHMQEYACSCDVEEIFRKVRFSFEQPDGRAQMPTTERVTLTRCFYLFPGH

[2] = DRUGMATRIX: Nicotinic Acetylcholine radioligand binding (ligand: [125I] Epibatidine); assay type: cell membranes, Membrane; conditions: imr-32; Not Active = under 50% inhibition at 10 µM
[3] = DRUGMATRIX: Atrial Natriuretic Factor (ANF) radioligand binding (ligand: [125I] ANF (rat)); assay type: cell membranes, Cavia porcellus, Dunkin-Hartley, Adrenal gland, Membrane; conditions: Not Active = under 50% inhibition at 10 µM
[4] = target: Prostaglandin G/H synthase 1 (Homo sapiens, UniProt P23219); experiment: biochemical; assay type: tissue-based, Platelet; conditions: platelet;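 note: inhibition of COX-1 enzyme activity, with arachidonic acid supplied as substrate; in other assays of this panel Not Active means under 50% inhibition at 10 µM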
Prostaglandin G/H synthase 1, sequence (P23219 whole entry): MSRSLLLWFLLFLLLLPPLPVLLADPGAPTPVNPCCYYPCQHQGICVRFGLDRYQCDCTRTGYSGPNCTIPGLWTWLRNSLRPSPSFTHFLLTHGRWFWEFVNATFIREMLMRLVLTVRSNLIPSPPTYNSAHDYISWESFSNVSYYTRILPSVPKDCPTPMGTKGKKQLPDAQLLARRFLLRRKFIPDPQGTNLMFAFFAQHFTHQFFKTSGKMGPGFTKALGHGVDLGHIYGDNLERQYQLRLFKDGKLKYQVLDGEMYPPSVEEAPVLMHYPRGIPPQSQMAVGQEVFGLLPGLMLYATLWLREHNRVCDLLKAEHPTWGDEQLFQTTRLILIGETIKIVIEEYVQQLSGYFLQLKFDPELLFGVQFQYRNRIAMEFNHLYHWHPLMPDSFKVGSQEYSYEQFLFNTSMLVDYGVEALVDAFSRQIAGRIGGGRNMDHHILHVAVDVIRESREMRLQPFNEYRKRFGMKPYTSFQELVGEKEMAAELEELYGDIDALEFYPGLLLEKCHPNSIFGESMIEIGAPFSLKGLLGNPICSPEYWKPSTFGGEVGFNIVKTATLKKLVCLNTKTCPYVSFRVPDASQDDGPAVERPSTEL

[5] = DRUGMATRIX: Glutamate, NMDA, Agonism radioligand binding (ligand: [3H] CGP-39653); assay type: cell membranes, Rattus norvegicus, Wistar, Cerebral cortex, Membrane; conditions: Not Active = under 50% inhibition at 10 µM
[6] = target: Beta-2 adrenergic receptor (Homo sapiens, UniProt P07550); experiment: DRUGMATRIX: Adrenergic beta2 radioligand binding (ligand: [3H] CGP-12177); assay type: cell membranes, Membrane; conditions: cho; Not Active = under 50% inhibition at 10 µM
Beta-2 adrenergic receptor, sequence (P07550 whole entry): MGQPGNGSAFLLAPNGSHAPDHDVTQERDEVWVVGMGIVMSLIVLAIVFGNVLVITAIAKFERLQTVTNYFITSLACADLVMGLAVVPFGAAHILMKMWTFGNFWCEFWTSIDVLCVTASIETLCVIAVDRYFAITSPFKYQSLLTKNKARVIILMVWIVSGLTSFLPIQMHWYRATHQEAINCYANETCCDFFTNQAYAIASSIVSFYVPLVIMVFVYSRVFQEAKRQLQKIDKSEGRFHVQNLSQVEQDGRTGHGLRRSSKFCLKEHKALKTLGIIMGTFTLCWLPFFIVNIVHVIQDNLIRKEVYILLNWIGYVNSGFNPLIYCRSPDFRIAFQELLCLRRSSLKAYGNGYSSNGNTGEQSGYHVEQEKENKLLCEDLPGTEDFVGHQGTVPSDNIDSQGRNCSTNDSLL

[7] = target: Platelet-activating factor receptor (Homo sapiens, UniProt P25105); experiment: biochemical; assay type: tissue-based; conditions: platelet; note: in other assays of this panel Not Active means under 50% inhibition at 10 µM
Platelet-activating factor receptor, sequence (P25105 whole entry): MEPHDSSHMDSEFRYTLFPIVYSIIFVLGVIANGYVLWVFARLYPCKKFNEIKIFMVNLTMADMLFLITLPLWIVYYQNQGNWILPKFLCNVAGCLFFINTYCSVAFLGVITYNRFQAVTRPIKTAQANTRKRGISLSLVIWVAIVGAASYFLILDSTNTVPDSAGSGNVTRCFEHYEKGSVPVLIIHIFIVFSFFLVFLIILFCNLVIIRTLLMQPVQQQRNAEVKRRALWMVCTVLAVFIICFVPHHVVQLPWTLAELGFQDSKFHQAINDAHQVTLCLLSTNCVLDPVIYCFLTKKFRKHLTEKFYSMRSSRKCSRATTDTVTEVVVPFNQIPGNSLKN

[8] = target: T2, Angiotensin-converting enzyme (Oryctolagus cuniculus, UniProt P12822); experiment: biochemical; assay type: tissue-based, Lung
T2 sequence (P12822 whole entry): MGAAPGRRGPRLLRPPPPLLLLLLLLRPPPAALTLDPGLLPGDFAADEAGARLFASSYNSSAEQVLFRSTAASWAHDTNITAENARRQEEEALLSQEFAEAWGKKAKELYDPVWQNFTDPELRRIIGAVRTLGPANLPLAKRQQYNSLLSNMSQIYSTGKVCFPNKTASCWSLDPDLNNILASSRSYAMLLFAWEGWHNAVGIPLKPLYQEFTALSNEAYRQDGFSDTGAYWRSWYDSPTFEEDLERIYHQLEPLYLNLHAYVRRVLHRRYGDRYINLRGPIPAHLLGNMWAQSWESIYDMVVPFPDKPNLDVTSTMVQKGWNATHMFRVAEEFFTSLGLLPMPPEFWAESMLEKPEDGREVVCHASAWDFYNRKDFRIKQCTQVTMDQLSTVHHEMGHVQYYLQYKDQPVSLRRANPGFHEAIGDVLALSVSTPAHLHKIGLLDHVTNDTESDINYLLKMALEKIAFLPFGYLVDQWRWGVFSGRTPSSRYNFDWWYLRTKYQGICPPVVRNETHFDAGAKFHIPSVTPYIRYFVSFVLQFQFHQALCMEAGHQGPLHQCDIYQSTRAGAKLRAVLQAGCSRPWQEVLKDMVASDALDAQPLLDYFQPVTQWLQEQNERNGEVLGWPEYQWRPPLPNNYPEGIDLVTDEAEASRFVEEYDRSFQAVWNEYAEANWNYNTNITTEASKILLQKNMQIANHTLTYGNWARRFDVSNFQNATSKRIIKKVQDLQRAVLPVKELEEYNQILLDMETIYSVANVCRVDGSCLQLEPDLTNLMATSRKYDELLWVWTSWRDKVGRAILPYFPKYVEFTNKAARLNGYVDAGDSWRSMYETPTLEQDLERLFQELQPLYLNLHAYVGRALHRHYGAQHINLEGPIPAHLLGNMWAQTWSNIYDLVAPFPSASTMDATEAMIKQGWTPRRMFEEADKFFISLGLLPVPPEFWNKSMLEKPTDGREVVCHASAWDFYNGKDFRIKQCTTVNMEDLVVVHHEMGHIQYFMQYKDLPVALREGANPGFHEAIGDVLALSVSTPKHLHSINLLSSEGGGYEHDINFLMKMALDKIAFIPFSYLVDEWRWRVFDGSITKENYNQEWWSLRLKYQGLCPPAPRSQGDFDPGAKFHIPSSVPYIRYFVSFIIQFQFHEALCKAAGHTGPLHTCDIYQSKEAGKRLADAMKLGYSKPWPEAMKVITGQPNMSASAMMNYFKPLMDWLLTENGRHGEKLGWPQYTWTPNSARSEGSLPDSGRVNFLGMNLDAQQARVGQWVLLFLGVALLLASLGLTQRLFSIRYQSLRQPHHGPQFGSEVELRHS

[9] = DRUGMATRIX: Tumor Necrosis Factor (TNF), Non-Selective radioligand binding (ligand: [125I] TNF-alpha); assay type: cell membranes, Membrane; conditions: u-937; Not Active = under 50% inhibition at 10 µM
[10] = target: T3, 5-hydroxytryptamine receptor 2C (Homo sapiens, UniProt P28335); experiment: DRUGMATRIX: Serotonin (5-Hydroxytryptamine) 5-HT2C radioligand binding (ligand: [3H] Mesulergine); assay type: cell membranes, CHO-K1, Membrane; conditions: cho-k1; Not Active = under 50% inhibition at 10 µM
T3 sequence (P28335 whole entry): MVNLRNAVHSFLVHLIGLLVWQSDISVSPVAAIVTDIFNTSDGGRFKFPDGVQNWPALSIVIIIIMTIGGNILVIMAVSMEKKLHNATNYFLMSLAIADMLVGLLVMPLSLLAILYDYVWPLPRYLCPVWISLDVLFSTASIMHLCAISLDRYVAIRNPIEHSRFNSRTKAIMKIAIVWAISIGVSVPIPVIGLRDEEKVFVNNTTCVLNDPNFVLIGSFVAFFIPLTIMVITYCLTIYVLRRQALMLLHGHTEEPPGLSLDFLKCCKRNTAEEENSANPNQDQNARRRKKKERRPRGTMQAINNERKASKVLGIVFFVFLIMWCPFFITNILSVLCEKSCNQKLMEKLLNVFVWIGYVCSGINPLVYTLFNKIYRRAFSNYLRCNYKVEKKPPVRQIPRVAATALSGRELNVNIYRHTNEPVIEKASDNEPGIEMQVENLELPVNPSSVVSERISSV

CCCCOC(=O)c1ccc(N)cc1 [BUTAMBEN]
Not Active: IC50 [1] | IC50 (Caspase-1) | IC50 [2] | Ki [2] | IC50 [3] | Ki [3] | IC50 [4] | IC50 [5] | Ki [5] | IC50 [6] | IC50 [7] | IC50 [8] | IC50 [9] | Ki [9] | IC50 [10]

O=C(O)c1cn(C2CC2)c2cc(N3CCNCC3)c(F)cc2c1=O [CIPROFLOXACIN]
Not Active: IC50 [1] | IC50 (Caspase-1) | IC50 [2] | Ki [2] | IC50 [3] | Ki [3] | IC50 [4] | IC50 [5] | Ki [5] | IC50 [6] | IC50 [7] | IC50 [8] | IC50 [9] | Ki [9] | IC50 [10]

COC(=O)[C@H](c1ccccc1Cl)N1CCc2sccc2C1 [CLOPIDOGREL]
Not Active: IC50 [1] | IC50 (Caspase-1) | IC50 [2] | Ki [2] | IC50 [3] | Ki [3] | IC50 [4] | IC50 [5] | Ki [5] | IC50 [6] | IC50 [7] | IC50 [8] | IC50 [9] | Ki [9] | IC50 [10]

COc1ccc([C@@H]2Sc3ccccc3N(CCN(C)C)C(=O)[C@@H]2OC(C)=O)cc1 [DILTIAZEM]
Not Active: IC50 [1] | IC50 (Caspase-1) | IC50 [2] | Ki [2] | IC50 [3] | Ki [3] | IC50 [4] | IC50 [5] | Ki [5] | IC50 [6] | IC50 [7] | IC50 [8] | IC50 [9] | Ki [9] | IC50 [10]

O=C1OCCN1/N=C/c1ccc([N+](=O)[O-])o1 [FURAZOLIDONE]
Not Active: IC50 [1] | IC50 (Caspase-1) | IC50 [2] | Ki [2] | IC50 [3] | Ki [3] | IC50 [4] | IC50 [5] | Ki [5] | IC50 [6] | IC50 [7] | IC50 [8] | IC50 [9] | Ki [9] | IC50 [10]

NCC(=O)O [GLYCINE]
Not Active: IC50 [1] | IC50 (Caspase-1) | IC50 [2] | Ki [2] | IC50 [3] | Ki [3] | IC50 [4] | IC50 [5] | Ki [5] | IC50 [6] | IC50 [7] | IC50 [8] | IC50 [9] | Ki [9] | IC50 [10]

O=P1(NCCCl)OCCCN1CCCl (stereo not given) [IFOSFAMIDE]
Not Active: IC50 [1] | IC50 (Caspase-1) | IC50 [2] | Ki [2] | IC50 [3] | Ki [3] | IC50 [4] | IC50 [5] | Ki [5] | IC50 [6] | IC50 [7] | IC50 [8] | IC50 [9] | Ki [9] | IC50 [10]

From ChEMBL document CHEMBL1909046, “DrugMatrix in vitro pharmacology data”
